# Test system: SA 9218
# Test: MIC by standard agar dilution method
# Format: cell-based
# Conditions: Mueller Hinton agar, 10^4 to 10^5 cells per spot, incubated overnight at 35° C., lowest concentration that inhibits visible growth
# Summary of the method: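 MIC read after overnight 35 °C incubation as lowest drug level preventing visible growth. Inoculum of roughly 10^4–10^5 cells per spot (0.5 McFarland, 1:20 in TSB) applied to Mueller Hinton agar containing serial 2-fold compound dilutions.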
SMILES,MIC [µg/mL],SA 9218 MIC [µg/mL]
N#Cc1ccc(NC(=O)c2cccc(S(=O)(=O)Nc3ccc4c(c3)CCC4)c2)c(C(=O)O)c1 [PHA-656860],8,–
CN(CCC(O)c1ccccc1)S(=O)(=O)c1ccc(C(=O)Nc2ccc(C#N)cc2C(=O)O)cc1 (centres unmarked) [PHA-656861],32,–
N#Cc1ccc(NC(=O)c2ccc(S(=O)(=O)N(CCO)Cc3ccccc3)cc2)c(C(=O)O)c1 [PHA-656862],32,–
N#Cc1ccc(NC(=O)c2cccc(S(=O)(=O)N3CCCC3CO)c2)c(C(=O)O)c1 (centres unmarked) [PHA-656863],8,–
N#Cc1ccc(NC(=O)c2ccc(S(=O)(=O)NC3CCc4ccccc43)cc2)c(C(=O)O)c1 (centres unmarked) [PHA-656866],> 128,–
CCCCN(CCO)S(=O)(=O)c1ccc(C(=O)Nc2ccc(C#N)cc2C(=O)O)cc1 [PHA-656867],64,–
N#Cc1ccc(NC(=O)c2ccc(S(=O)(=O)N3CCCC3CO)cc2)c(C(=O)O)c1 (centres unmarked) [PHA-656868],> 128,–
C=CCN(C1CCCC1)S(=O)(=O)c1cccc(C(=O)Nc2ccc(C#N)cc2C(=O)O)c1 [PHA-656870],8,–
CC1CCCN1S(=O)(=O)c1ccc(C(=O)Nc2ccc(C#N)cc2C(=O)O)cc1 (centres unmarked) [PHA-656871],128,–
CN(CCc1ccccn1)S(=O)(=O)c1cccc(C(=O)Nc2ccc(C#N)cc2C(=O)O)c1 [PHA-656872],> 128,–
O=C(Nc1ccc(Cl)cc1C(=O)O)c1cccc(C(=O)c2ccc3ccccc3n2)c1 [PHA-656880],16,–
O=C(COc1ccccc1)c1cccc(C(=O)Nc2ccc(Cl)cc2C(=O)O)c1 [PHA-656882],16,–
COC(=O)c1cccc(C(=O)c2ccc(C(=O)Nc3ccc(Cl)cc3C(=O)O)cc2)c1 [PHA-656883],16,–
CC(C)C(=O)c1cccc(C(=O)Nc2ccc(Cl)cc2C(=O)O)c1 [PHA-656884],16,–
COc1ccccc1C(=O)c1cccc(C(=O)Nc2ccc(Cl)cc2C(=O)O)c1 [PHA-656885],16,–
COC(=O)c1cccc(C(=O)c2cccc(C(=O)Nc3ccc(Cl)cc3C(=O)O)c2)c1 [PHA-656886],16,–
O=C(Nc1ccc(Cl)cc1C(=O)O)c1cccc(C(=O)c2cccs2)c1 [PHA-656887],8,–
O=C(Nc1ccc(Cl)cc1C(=O)O)c1cccc(C(=O)C2CCC2)c1 [PHA-656888],16,–
CC(C)(C)CC(=O)c1cccc(C(=O)Nc2ccc(Cl)cc2C(=O)O)c1 [PHA-656889],16,–
O=C(Nc1ccc(Cl)cc1C(=O)O)c1cccc(C(=O)C2CC2)c1 [PHA-656890],16,–
O=C(CCC1CCCC1)c1cccc(C(=O)Nc2ccc(Cl)cc2C(=O)O)c1 [PHA-656891],16,–
O=C(Nc1ccc(Cl)cc1C(=O)O)c1cccc(C(=O)c2ccc(F)c(F)c2)c1 [PHA-656892],8,–
O=C(Nc1ccc(Cl)cc1C(=O)O)c1cccc(C(=O)c2cc(F)cc(F)c2)c1 [PHA-656893],8,–
Cc1cccc(C(=O)c2cccc(C(=O)Nc3ccc(Cl)cc3C(=O)O)c2)c1 [PHA-656894],16,–
O=C(Nc1ccc(Cl)cc1C(=O)O)c1cc(Br)cc(S(=O)(=O)N2CCOCC2)c1 [PHA-662250],1,–
N#Cc1ccc(NC(=O)c2cccc(C(=O)N3CCOCC3)c2)c(C(=O)O)c1 [PHA-662412],64,–
N#Cc1ccc(NC(=S)c2cccc(S(=O)(=O)N3CCOCC3)c2)c(C(=O)O)c1 [PHA-662430],1,–

SMILES,MIC [µg/mL],SA 9218 MIC [µg/mL]
N#Cc1ccc(NC(=S)c2cccc(S(=O)(=O)N3CCCC3)c2)c(C(=O)O)c1 [PHA-662431],1,–
N#Cc1ccc(NC(=O)c2cccc(S(=O)(=O)N3CCOCC3)c2)c(C(=O)O)c1 [PHA-662951],–,32
Cc1cc(C(=O)Nc2ccc(Cl)cc2C(=O)O)cc(S(=O)(=O)N2CCc3ccccc32)c1 [PHA-664658],4,–
O=Cc1ccc(NC(=O)c2cccc(S(=O)(=O)N3CCOCC3)c2)c(C(=O)O)c1 [PHA-666124],32,–
CN(c1ccccc1N)S(=O)(=O)c1cccc(C(=O)Nc2ccc(C#N)cc2C(=O)O)c1 [PHA-670083],0.5,–
O=C(Nc1ccc(/C=N/O)cc1C(=O)O)c1cccc(S(=O)(=O)N2CCOCC2)c1 [PHA-679756],> 128,–
CO/N=C/c1ccc(NC(=O)c2cccc(S(=O)(=O)N3CCOCC3)c2)c(C(=O)O)c1 [PHA-679759],> 128,–
O=Cc1ccc(NC(=O)c2cc(Br)cc(S(=O)(=O)N3CCc4cc(Cl)ccc43)c2)c(C(=O)O)c1 [PHA-681768],1,–
CO/N=C/c1ccc(NC(=O)c2cccc(S(=O)(=O)N3CCc4cc(Cl)ccc43)c2)c(C(=O)O)c1 [PHA-682996],64,–
O=C(Nc1ccc(/C=N/O)cc1C(=O)O)c1cccc(S(=O)(=O)N2CCc3cc(Cl)ccc32)c1 [PHA-686834],4,–
N#Cc1ccc(C2CC2c2cccc(S(=O)(=O)N3CCc4cc(Cl)ccc43)c2)c(C(=O)O)c1 (centres unmarked) [PHA-687511],4,–
O=C(Nc1ccc(C#CCO)cc1C(=O)O)c1cccc(S(=O)(=O)N2CCc3ccccc32)c1 [PHA-687570],128,–
O=C(O)c1cc(Cl)ccc1/C=C/c1cccc(S(=O)(=O)N2CCc3cc(Cl)ccc32)c1 [PHA-707801],4,–
CC(=O)c1ccc(CC(=O)c2ccc(S(=O)(=O)N3CCc4cc(Cl)ccc43)cc2)c(C(=O)O)c1 [PHA-708922],> 128,–
CC(=O)c1ccc(NC(=O)c2cccc(S(=O)(=O)N3CCOCC3)c2)c(C(=O)O)c1 [PHA-708923],32,–
O=C(Nc1cccc(C(=O)Nc2ccc(Br)cc2C(=O)O)c1)c1ccccc1 [PHA-708976],32,–
O=C(Nc1ccc(C(=O)Nc2ccc(Br)cc2C(=O)O)cc1)c1ccccc1 [PHA-708977],> 128,–
O=C(Nc1ccc(Br)cc1C(=O)O)c1cccc(NC(=O)c2ccco2)c1 [PHA-708978],32,–
O=C(Nc1ccc(Br)cc1C(=O)O)c1ccc(NC(=O)c2ccco2)cc1 [PHA-708979],> 128,–
O=C(Cc1cccs1)Nc1cccc(C(=O)Nc2ccc(Br)cc2C(=O)O)c1 [PHA-708980],16,–
Cc1cc(C)c(C(=O)Nc2cccc(C(=O)Nc3ccc(Br)cc3C(=O)O)c2)c(C)c1 [PHA-708981],16,–
Cc1cc(C)c(C(=O)Nc2ccc(C(=O)Nc3ccc(Br)cc3C(=O)O)cc2)c(C)c1 [PHA-708982],128,–
O=C(Nc1cccc(C(=O)Nc2ccc(Br)cc2C(=O)O)c1)c1ccc2c(c1)OCO2 [PHA-708983],32,–
COc1ccc(C(=O)Nc2cccc(C(=O)Nc3ccc(Br)cc3C(=O)O)c2)c(OC)c1 [PHA-708984],32,–
O=C(CSc1ccccc1)Nc1cccc(C(=O)Nc2ccc(Br)cc2C(=O)O)c1 [PHA-708985],8,–
COCC(=O)Nc1cccc(C(=O)Nc2ccc(Br)cc2C(=O)O)c1 [PHA-708986],64,–
COCC(=O)Nc1ccc(C(=O)Nc2ccc(Br)cc2C(=O)O)cc1 [PHA-708987],> 128,–

SMILES,MIC [µg/mL],SA 9218 MIC [µg/mL]
O=C(Nc1ccccc1)Nc1cccc(C(=O)Nc2ccc(Br)cc2C(=O)O)c1 [PHA-708988],32,–
O=C(Nc1cccc(C(=O)Nc2ccc(Br)cc2C(=O)O)c1)Nc1ccc(F)cc1F [PHA-708989],8,–
N#Cc1cccc(NC(=O)Nc2cccc(C(=O)Nc3ccc(Br)cc3C(=O)O)c2)c1 [PHA-708990],8,–
O=C(Nc1cccc(Cl)c1)Nc1cccc(C(=O)Nc2ccc(Br)cc2C(=O)O)c1 [PHA-708991],4,–
CSc1cccc(NC(=O)Nc2cccc(C(=O)Nc3ccc(Br)cc3C(=O)O)c2)c1 [PHA-708992],4,–
CC(=O)c1cccc(NC(=O)Nc2cccc(C(=O)Nc3ccc(Br)cc3C(=O)O)c2)c1 [PHA-708993],4,–
O=C(Nc1ccc(Br)cc1C(=O)O)c1ccc(NS(=O)(=O)c2ccccc2)cc1 [PHA-708994],8,–
O=C(Nc1ccc(Br)cc1C(=O)O)c1cccc(NS(=O)(=O)c2ccc(OC(F)(F)F)cc2)c1 [PHA-708995],0.125,–
O=C(Nc1ccc(Br)cc1C(=O)O)c1ccc(NS(=O)(=O)c2ccc(OC(F)(F)F)cc2)cc1 [PHA-708996],16,–
O=C(Nc1ccc(Br)cc1C(=O)O)c1ccc(NS(=O)(=O)c2ccc(Cl)c(Cl)c2)cc1 [PHA-708997],8,–
O=C(Cc1cccs1)Nc1ccc(C(=O)Nc2ccc(Br)cc2C(=O)O)cc1 [PHA-713386],128,–
O=C(Nc1ccc(Br)cc1C(=O)O)c1cccc(NC(=O)c2ccc([N+](=O)[O-])o2)c1 [PHA-713387],128,–
O=C(Nc1cccc(C(=O)Nc2ccc(Br)cc2C(=O)O)c1)c1ccc(Cl)nc1 [PHA-713389],> 128,–
O=C(Nc1ccc(C(=O)Nc2ccc(Br)cc2C(=O)O)cc1)c1ccc(Cl)nc1 [PHA-713390],> 128,–
O=C(Nc1ccc(Br)cc1C(=O)O)c1cccc(NC(=O)c2sc3ccccc3c2Cl)c1 [PHA-713391],> 128,–
O=C(Nc1ccc(Br)cc1C(=O)O)c1ccc(NC(=O)c2sc3ccccc3c2Cl)cc1 [PHA-713392],> 128,–
O=C(Nc1ccccc1)Nc1ccc(C(=O)Nc2ccc(Br)cc2C(=O)O)cc1 [PHA-713393],> 128,–
O=C(Nc1ccc(C(=O)Nc2ccc(Br)cc2C(=O)O)cc1)Nc1ccc(F)cc1F [PHA-713394],128,–
N#Cc1cccc(NC(=O)Nc2ccc(C(=O)Nc3ccc(Br)cc3C(=O)O)cc2)c1 [PHA-713395],> 128,–
O=C(Nc1ccc(Br)cc1C(=O)O)c1cccc(NC(=S)Nc2cc(Cl)cc(Cl)c2)c1 [PHA-713396],8,–
O=C(Nc1ccc(C(=O)Nc2ccc(Br)cc2C(=O)O)cc1)Nc1cc(Cl)cc(Cl)c1 [PHA-713397],> 128,–
COc1ccc(Cl)cc1NC(=O)Nc1cccc(C(=O)Nc2ccc(Br)cc2C(=O)O)c1 [PHA-713398],4,–
O=C(Nc1ccc(Oc2ccccc2)cc1)Nc1cccc(C(=O)Nc2ccc(Br)cc2C(=O)O)c1 [PHA-713399],16,–
O=C(Nc1ccc(Oc2ccccc2)cc1)Nc1ccc(C(=O)Nc2ccc(Br)cc2C(=O)O)cc1 [PHA-713400],16,–
CC(=O)c1ccc(NC(=O)Nc2cccc(C(=O)Nc3ccc(Br)cc3C(=O)O)c2)cc1 [PHA-713401],32,–
O=C(Nc1ccc(Br)cc1C(=O)O)c1ccc(NC(=S)Nc2ccc([N+](=O)[O-])cc2)cc1 [PHA-713403],64,–
